#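 Step 1: Grow cells in 96-well plates. Step 2: Expose to compound for 48 hours at 5 concentrations. Step 3: Interpolate endpoints linearly; if unreached, use highest concentration. Abbreviation: GI50, concentration required for 50% inhibition of growth. TGI: total growth inhibition.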
# Experiments:
# Assay in all cases: DTP human tumour cell line panel, 48 h
# EKVX NSCLC = system: EKVX NSCLC
# HOP-62 NSCLC = system: HOP-62 NSCLC
# NCI-H460 lung = system: NCI-H460 lung
# NCI/ADR-RES ovarian = system: NCI/ADR-RES ovarian
# OVCAR-5 ovarian = system: OVCAR-5 ovarian
# SF-268 CNS = system: SF-268 CNS
# SK-MEL-2 melanoma = system: SK-MEL-2 melanoma
# SN12C renal = system: SN12C renal
# SW-620 colon = system: SW-620 colon
# U251 CNS = system: U251 CNS
Structure (SMILES),GI50 (EKVX NSCLC) [µM],TGI (EKVX NSCLC) [µM],GI50 (HOP-62 NSCLC) [µM],TGI (HOP-62 NSCLC) [µM],GI50 (NCI-H460 lung) [µM],TGI (NCI-H460 lung) [µM],GI50 (NCI/ADR-RES ovarian) [µM],TGI (NCI/ADR-RES ovarian) [µM],GI50 (OVCAR-5 ovarian) [µM],TGI (OVCAR-5 ovarian) [µM],GI50 (SF-268 CNS) [µM],TGI (SF-268 CNS) [µM],GI50 (SK-MEL-2 melanoma) [µM],TGI (SK-MEL-2 melanoma) [µM],GI50 (SN12C renal) [µM],TGI (SN12C renal) [µM],GI50 (SW-620 colon) [µM],TGI (SW-620 colon) [µM],GI50 (U251 CNS) [µM],TGI (U251 CNS) [µM]
N#CC1c2ccccc2-c2ccccc2N1C(=O)c1ccccc1 (stereo not given),7.2,> 100,4.46,> 100,3.06,10.9,1.81,> 100,5.37,> 100,3.03,23.4,2.78,> 29.6,3.86,> 92.2,0.585,> 100,2.68,> 46.7
Cc1ccc(C2=Nc3c(N)ncnc3NC(c3cccc(Nc4ccnc5cc(C(F)(F)F)ccc45)c3)C2)cc1 (stereo not given),3.95,> 100,5.38,52.1,3.07,10.5,2.96,10.2,4.96,> 100,4.47,47.1,2.15,5.15,4.77,> 100,2.87,11.3,3.73,15.1
C/C(=C(/c1ccc(O)cc1)c1ccc(OCCN2CCCC2)cc1)c1ccccc1,2.46,11.5,2.1,4.54,2.36,5.38,4.17,18.3,7.99,22.5,5.58,20.7,1.97,3.95,9.17,25.7,2.28,5.17,2.24,5.49
O=c1oc(-c2ccc(O)c(O)c2)cc2cc(O)cc(O)c12,28.4,91.3,33,90.4,31,> 100,33.5,> 100,36.7,> 100,32.4,> 100,74.4,> 100,43,> 100,35.2,> 100,48.5,> 100
CC1(CC(=O)O)OC2CCCCCC2O1 (stereo not given) (tested in a mixture with another compound),,> 100,,> 100,,> 100,,> 100,,> 100,,> 100,,> 100,,> 100,,> 100,,> 100
CCN(CC)CCOc1ccc(/C=C2\C[C@H]3[C@@H]4CC=C5C[C@@H](OC(C)=O)CC[C@]5(C)[C@H]4CC[C@]3(C)[C@H]2OC(C)=O)cc1OC,6.84,14.5,10.1,19.5,7.6,34.6,11.1,22.3,9.3,18,8.34,19.8,19.2,> 50,9.06,21.3,16.8,> 50,10.3,26.2
Oc1cccc(-c2nc3ccccc3s2)c1,,42.7,,> 100,,> 100,,68.8,,51.5,,68.7,,> 100,,> 100,,> 100,,> 100
COc1ccc(C2=CC(c3cc(OC)c(OC)c(OC)c3)n3ncnc3N2)cc1 (stereo not given),0.0788,> 100,0.0588,25.2,0.0418,13.7,0.0444,20.3,0.502,> 100,0.0833,29.7,16.9,71.1,0.141,> 100,0.0484,> 100,0.0551,29.6
CCOC(=O)c1[nH]c2c(c1C)-c1[nH]c(=O)c(S(=O)(=O)c3ccccc3)cc1SC2,38.8,> 100,44.3,> 100,34.6,> 100,52.9,> 100,> 100,> 100,34.5,> 100,92.3,> 100,93.6,> 100,57.9,> 100,31.1,> 100
Nc1ncnc2occ(-c3ccc(NC(=O)Nc4cc(C(F)(F)F)cc(C(F)(F)F)c4)cc3)c12,3.16,8.07,3.66,6.99,3.1,6.7,3.44,9.07,4.39,8.99,2.92,6.66,3.72,7.47,2.12,5.51,4.01,7.61,3.28,6.64
O=C(OCc1ccccc1CN1CCOCC1)c1ccc(Br)cc1,,> 100,,> 100,,> 100,,> 100,,> 100,,> 100,,> 100,,> 100,,> 100,,> 100
O=C(N[C@@H]1CCCc2ccccc21)[C@H](CCC(=O)N1CCN(C2CCCCC2)CC1)N1C(=O)[C@@H](N2C(=O)OC[C@@H]2c2ccccc2)[C@H]1/C=C/c1ccccc1,2.52,> 100,3.87,17.4,2.65,7.23,2.78,10.6,4.01,47.5,1.3,3.04,1.92,4.29,3.72,27.3,3.06,10.8,2.2,5.42

# Source: PubChem BioAssay (NCI)
